Among the data in patent publication US9765056B2, “Indole and pyrrole compounds, a process for their preparation and pharmaceutical compositions containing them” (LES LABORATOIRES SERVIER, priority 2013, dated 2017) are IC50 values, retold here.

Structures can show the parent of a compound that is named as a salt.

The target in assay [1] is Bcl-2 protein (histag-Bcl-2, UniProtKB P10415) (Homo sapiens (Human), UniProt P10415). In words: Inhibition of Bcl-2 by the fluorescence polarisation technique. The note with it: fluorescence polarisation test; method A, or method B where underlined (underlining not visible); read-out: IC50 (nM) Bcl-2 FP. The format is binding. The source says: Inhibition of Bcl-2 by the fluorescence polarisation technique
Sequence of Bcl-2 protein (P10415 whole entry): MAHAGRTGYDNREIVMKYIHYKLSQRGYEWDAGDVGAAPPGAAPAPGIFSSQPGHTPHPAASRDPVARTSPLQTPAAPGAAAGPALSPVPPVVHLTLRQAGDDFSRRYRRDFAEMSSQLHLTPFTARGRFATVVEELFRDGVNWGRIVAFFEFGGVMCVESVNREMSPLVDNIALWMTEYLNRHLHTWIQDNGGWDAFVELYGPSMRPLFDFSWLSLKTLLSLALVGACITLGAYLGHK

Assay [2] relates to RS4;11 leukaemia tumour line. Put plainly: In vitro cytotoxicity, Microculture Tetrazolium Assay (MTT). Format: cell-based. The note with it: Homo sapiens; RS4;11 cells, 48 hours exposure. As for the experimental part: The cytotoxicity studies were carried out on the RS4;11 leukaemia tumour line.
The cells are distributed onto microplates and exposed to the test compounds for 48 hours. The cell viability is then quantified by a colorimetric assay, the Microculture Tetrazolium Assay (Cancer Res., 1987, 47, 939-942).

`COc1cc(C(=O)N2Cc3ccccc3C[C@H]2CN2CCN(C)CC2)c(-n2cc(C(=O)N(c3ccccc3)c3ccc(O)cc3)c3ccccc32)cc1Cl` [Example 167, 1-{5-Chloro-4-methoxy-2-[(3S)-3-[(4-methylpiperazin-1-yl)methyl]-1,2,3,4-tetrahydroisoquinoline-2-carbonyl]phenyl}-N-(4-hydroxyphenyl)-N-phenyl-1H-indole-3-carboxamide]: the IC50 was found to be 37.4 nM in assay [1] and 984 nM in assay [2].

For the compound `COc1ccc(C(=O)N2Cc3ccccc3C[C@H]2CN2CCN(C)CC2)c(-n2cc(C(=O)N(c3ccccc3)c3ccc(O)cc3)c3ccccc32)c1` [Example 168, N-(4-Hydroxyphenyl)-1-{5-methoxy-2-[(3S)-3-[(4-methylpiperazin-1-yl)methyl]-1,2,3,4-tetrahydroisoquinoline-2-carbonyl]phenyl}-N-phenyl-1H-indole-3-carboxamide dihydrochloride], the IC50 was determined as 11.4 nM in assay [1] and 188 nM in assay [2].

For the compound `COc1ccc(C(=O)N2Cc3ccccc3C[C@H]2CN2CCCCC2)c(-n2cc(C(=O)N(c3ccccc3)c3ccc(O)cc3)c3ccccc32)c1` [Example 169, N-(4-Hydroxyphenyl)-1-{5-methoxy-2-[(3S)-3-(piperidin-1-ylmethyl)-1,2,3,4-tetrahydroisoquinoline-2-carbonyl]phenyl}-N-phenyl-1H-indole-3-carboxamide hydrochloride], the results for the IC50 in assay [1] and in assay [2] were 108 nM and 854 nM, respectively.

Consider `CN1CCN(C[C@@H]2Cc3ccccc3CN2C(=O)c2cc3c(cc2-n2cc(C(=O)N(c4ccccc4)c4ccc(O)cc4)c4ccccc42)OCCO3)CC1` [Example 170, N-(4-Hydroxyphenyl)-1-{7-[(3S)-3-[(4-methylpiperazin-1-yl)methyl]-1,2,3,4-tetrahydroisoquinoline-2-carbonyl]-2,3-dihydro-1,4-benzodioxin-6-yl}-N-phenyl-1H-indole-3-carboxamide], for which the IC50 in assay [1] came to 16.8 nM; in assay [2] it was 177 nM.

Turning to `O=C(c1cn(-c2cc(Cl)ccc2C(=O)N2Cc3ccccc3C[C@H]2CN2CCCCC2)c2ccccc12)N(c1ccccc1)c1ccc(O)cc1` [Example 171, 1-{5-Chloro-2-[(3S)-3-(piperidin-1-ylmethyl)-1,2,3,4-tetrahydroisoquinoline-2-carbonyl}phenyl]-N-(4-hydroxyphenyl)-N-phenyl-1H-indole-3-carboxamide], the IC50 came to 71.8 nM in assay [1] and 1050 nM in assay [2].

For the compound `O=C(c1cn(-c2ccccc2C(=O)N2Cc3ccccc3C[C@H]2CO)c2ccccc12)N(c1ccccc1)c1ccc(O)cc1` [Example 172, 1-{2-[(3S)-3-(Hydroxymethyl)-1,2,3,4-tetrahydroisoquinoline-2-carbonyl]phenyl}-N-(4-hydroxyphenyl)-N-phenyl-1H-indole-3-carboxamide], the IC50 was found to be 4.2 nM in assay [1] and 1200 nM in assay [2].

Turning to `O=C(c1cn(-c2ccccc2C(=O)N2Cc3ccccc3C[C@H]2CN2CCCCC2)c2ccccc12)N(c1ccccc1)c1ccc(O)cc1` [Example 173, N-(4-Hydroxyphenyl)-N-phenyl-1-{2-[(3S)-3-(piperidin-1-ylmethyl)-1,2,3,4-tetrahydroisoquinoline-2-carbonyl]phenyl}-1H-indole-3-carboxamide], the IC50 stood at 168 nM in assay [1] and 2040 nM in assay [2].

In the case of `O=C(c1cn(-c2cc3c(cc2C(=O)N2Cc4ccccc4C[C@H]2CN2CCCCC2)OCO3)c2ccccc12)N(c1ccccc1)c1ccc(O)cc1` [Example 174, N-(4-Hydroxyphenyl)-N-phenyl-1-{6-[(3S)-3-(piperidin-1-ylmethyl)-1,2,3,4-tetrahydroisoquinoline-2-carbonyl]-2H-1,3-benzodioxol-5-yl}-1H-indole-3-carboxamide], the IC50 in assay [1] is 41.2 nM; in assay [2], 402 nM.

On to `COc1ccc(C(=O)N2Cc3ccccc3C[C@H]2CN(C)C)c(-n2cc(C(=O)N(c3ccccc3)c3ccc(O)cc3)c3ccccc32)c1` [Example 175, 1-{2-[(3S)-3-[(Dimethylamino)methyl]-1,2,3,4-tetrahydroisoquinoline-2-carbonyl]-5-methoxyphenyl}-N-(4-hydroxyphenyl)-N-phenyl-1H-indole-3-carboxamide], for which the IC50 amounted to 25.1 nM in assay [1] and 460 nM in assay [2].

Take `COc1cc(-n2cc(C(=O)N(c3ccccc3)c3ccc(O)cc3)c3ccccc32)c(C(=O)N2Cc3ccccc3C[C@H]2CN2CCCCC2)cc1O` [Example 176, 1-{4-Hydroxy-5-methoxy-2-[(3S)-3-(piperidin-1-ylmethyl)-1,2,3,4-tetrahydroisoquinoline-2-carbonyl]phenyl}-N-(4-hydroxyphenyl)-N-phenyl-1H-indole-3-carboxamide hydrochloride]: the IC50 in assay [1] was 6.2 nM; in assay [2], 225 nM.

As to `CN1CCN(C[C@@H]2Cc3ccccc3CN2C(=O)c2cc3c(cc2-n2cc(C(=O)N(c4ccccc4)c4ccccc4)c4ccccc42)OCO3)CC1` [Example 177, 1-{6-[(3S)-3-[(4-Methylpiperazin-1-yl)methyl]-1,2,3,4-tetrahydroisoquinoline-2-carbonyl]-2H-1,3-benzodioxol-5-yl}-N,N-diphenyl-1H-indole-3-carboxamide dihydrochloride], the IC50 is 18.8 nM in assay [1] and 568 nM in assay [2].

For the compound `CN1CCN(C[C@@H]2Cc3ccccc3CN2C(=O)c2ccc(Cl)cc2-n2cc(C(=O)N(c3ccccc3)c3ccccc3)c3ccccc32)CC1` [Example 178, 1-{5-Chloro-2-[(3S)-3-[(4-methylpiperazin-1-yl)methyl]-1,2,3,4-tetrahydroisoquinoline-2-carbonyl]phenyl}-N,N-diphenyl-1H-indole-3-carboxamide dihydrochloride], the IC50 in assay [1] was determined as 17.5 nM; in assay [2], 812 nM.

Take `CN(C)C[C@@H]1Cc2ccccc2CN1C(=O)c1ccc(Cl)cc1-n1cc(C(=O)N(c2ccccc2)c2ccc(O)cc2)c2ccccc21` [Example 179, 1-{5-Chloro-2-[(3S)-3-[(dimethylamino)methyl]-1,2,3,4-tetrahydroisoquinoline-2-carbonyl]phenyl}-N-(4-hydroxyphenyl)-N-phenyl-1H-indole-3-carboxamide hydrochloride]: the figures for the IC50 in assay [1] and in assay [2] were 18.1 nM and 886 nM, respectively.

`CN(C)C[C@@H]1Cc2ccccc2CN1C(=O)c1cc2c(cc1-n1cc(C(=O)N(c3ccccc3)c3ccc(O)cc3)c3ccccc31)OCO2` [Example 180, 1-{6-[(3S)-3-[(Dimethylamino)methyl]-1,2,3,4-tetrahydroisoquinoline-2-carbonyl]-2H-1,3-benzodioxol-5-yl}-N-(4-hydroxyphenyl)-N-phenyl-1H-indole-3-carboxamide hydrochloride]: the figures for the IC50 in assay [1] and in assay [2] were 11 nM and 210 nM, respectively.

As for `COc1cc(-n2cc(C(=O)N(c3ccccc3)c3ccccc3)c3ccccc32)c(C(=O)N2Cc3ccccc3C[C@H]2CN2CCN(C)CC2)cc1O` [Example 181, 1-{4-Hydroxy-5-methoxy-2-[(3S)-3-[(4-methylpiperazin-1-yl)methyl]-1,2,3,4-tetrahydroisoquinoline-2-carbonyl]phenyl}-N,N-diphenyl-1H-indole-3-carboxamide dihydrochloride], the IC50 in assay [1] came to 6.9 nM; in assay [2], 205 nM.

`CN1CCN(C[C@@H]2Cc3ccccc3CN2C(=O)c2cc3c(cc2-n2cc(C(=O)N(c4ccccc4)c4ccc(O)cc4)c4ccccc42)OC(F)(F)O3)CC1` [Example 182, 1-{2,2-Difluoro-6-[(3S)-3-[(4-methylpiperazin-1-yl)methyl]-1,2,3,4-tetrahydroisoquinoline-2-carbonyl]-2H-1,3-benzodioxol-5-yl}-N-(4-hydroxyphenyl)-N-phenyl-1H-indole-3-carboxamide]: the figures for the IC50 in assay [1] and in assay [2] were 111 nM and 1850 nM, respectively.

In the case of `CCC1COc2cc(-n3cc(C(=O)N(c4ccccc4)c4ccc(O)cc4)c4ccccc43)c(C(=O)N3Cc4ccccc4C[C@H]3CN3CCN(C)CC3)cc2O1` (stereo partly drawn) [Example 185, 1-{2-Ethyl-7-[(3S)-3-[(4-methylpiperazin-1-yl)methyl]-1,2,3,4-tetrahydroisoquinoline-2-carbonyl]-2,3-dihydro-1,4-benzodioxin-6-yl}-N-(4-hydroxyphenyl)-N-phenyl-1H-indole-3-carboxamide], the values for the IC50 in assay [1] and in assay [2] were 17.3 nM and 422 nM, respectively.

`O=C(c1cn(-c2cc(Cl)ccc2C(=O)N2Cc3ccccc3C[C@H]2CN2CCOCC2)c2ccccc12)N(c1ccccc1)c1ccc(O)cc1` [Example 186, 1-{5-Chloro-2-[(3S)-3-(morpholin-4-ylmethyl)-1,2,3,4-tetrahydroisoquinoline-2-carbonyl}phenyl]-N-(4-hydroxyphenyl)-N-phenyl-1H-indole-3-carboxamide hydrochloride]: the IC50 came out at 23.5 nM in assay [1] and 626 nM in assay [2].

Regarding `COc1cc(-n2cc(C(=O)N(c3ccccc3)C3CCCCC3)c3ccccc32)c(C(=O)N2Cc3ccccc3C[C@H]2CN2CCN(C)CC2)cc1O` [Example 187, N-Cyclohexyl-1-{4-hydroxy-5-methoxy-2-[(3S)-3-[(4-methylpiperazin-1-yl)methyl]-1,2,3,4-tetrahydroisoquinoline-2-carbonyl}phenyl]-N-phenyl-1H-indole-3-carboxamide dihydrochloride], the figures for the IC50 in assay [1] and in assay [2] were 21.6 nM and 1990 nM, respectively.

On to `CN1CCN(C[C@@H]2Cc3ccccc3CN2C(=O)c2cc3c(cc2-n2cc(C(=O)N(c4ccccc4)c4ccc(O)cc4)c4ccccc42)OC[C@H](COCc2ccccc2)O3)CC1` [Example 188, 1-[(2S)-2-[(Benzyloxy)methyl]-7-[(3S)-3-[(4-methylpiperazin-1-yl)-methyl]-1,2,3,4-tetrahydroisoquinoline-2-carbonyl]-2,3-dihydro-1,4-benzodioxin-6-yl]-N-(4-hydroxyphenyl)-N-phenyl-1H-indole-3-carboxamide], for which the half-inhibitory concentration (IC50) in assay [1] came to 16.8 nM; in assay [2], 68 nM.
